In PMC11954305, “Generate what you can make: achieving in-house synthesizability with readily available resources in de novo drug design” (Journal of Cheminformatics, 2025):

Biological target: T1, monoglyceride lipase (MGLL) (Homo sapiens, UniProt Q99685)
T1 construct: enzyme source only in Supplementary section D
T1 sequence (Q99685 1-303): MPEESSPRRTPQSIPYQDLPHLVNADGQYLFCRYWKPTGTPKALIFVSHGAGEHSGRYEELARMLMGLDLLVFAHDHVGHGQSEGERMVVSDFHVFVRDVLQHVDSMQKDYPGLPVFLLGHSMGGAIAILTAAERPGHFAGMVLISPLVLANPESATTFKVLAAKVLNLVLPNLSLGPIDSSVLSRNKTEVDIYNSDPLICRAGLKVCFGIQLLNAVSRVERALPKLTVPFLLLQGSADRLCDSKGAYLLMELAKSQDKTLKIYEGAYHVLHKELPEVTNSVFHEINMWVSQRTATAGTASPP
Assay: natural substrate assay, residual MGLL activity
Details: enzyme preparation and conditions only in Supplementary section D

Compound | IC50
O=C(OC(C(F)(F)F)C(F)(F)F)N1CCN(C2CCCCC2)CC1 [compound 1, Compound 1] | 1 µM
O=C(N1CCCC(c2ccc(F)cc2)C1)n1nnc2ccccc21 (stereo not drawn) [compound 2] | ~100 µM
O=C(c1nccs1)N1CCN(C(c2ccccc2)c2ccccc2)CC1 [compound 3] | ~100 µM
